Assay results reported in patent US9358276B2, “Methods of diagnosing and treating small intestinal bacterial overgrowth (SIBO) and SIBO-related conditions” (Cedars-Sinai Medical Center, priority 1999, dated 2016).

Experiments:
[1] = tested on: intestinal transit; experiment: Intestinal transit in multi-fistulated dogs, cumulative % recovery of 99mTc-DTPA; assay type: in vivo, dog; conditions: for Effect of 5-HT delivered to distal gut on intestinal transit time: n = 2 dogs
Source text: The experiments described below are based on a previously described chronic multi-fistulated dog model, employing surgically fistulated male or female mongrel dogs weighing about 25 kg each. (Lin, H. C. et al., Inhibition of gastric emptying by glucose depends on length of intestine exposed to nutrient, Am. J. Physiol. 256:G404-G411 [1989]). The small intestines of the dogs were each about 300 cm long from the pylorus to the ileal-cecal valve. The duodenal fistula was situated 15 cm from the pylorus; the mid-gut fistula was situated 160 cm from the pylorus. Occluding Foley catheters (balloon catheters that are inflated to produce a water-tight seal with the lumenal surface) were placed into the distal limb of a duodenal fistula and a mid-gut fistula, fat or other test agents were administered lumenally to the thus compartmentalized Aproximal≅ section of the gut, i.e., between the fistulas, or to the compartmentalized Adistal≅ section of the gut, i.e., beyond the mid-gut fistula. Perfusate was pumped into a test section through the catheter at a rate of 2 mL/minute. Test agents were administered along with buffer perfusate, but some test agents were administered intravenously, where specifically noted.
Intestinal transit measurements were made by tracking the movement of a liquid marker across the approximately 150 cm intestinal test segment by delivering about 20 μCi ^99mTc chelated to diethyltriamine pentaacetic acid (DTPA)(Cunningham, K. M. et al., Use of technicium-99m (V)thiocyanate to measure gastric emptying of fat, J. Nucl. Med. 32:878-881 [1991]) as a bolus into the test segment after 60 minutes of a 90-minute perfusion. The output from the mid-gut fistula was collected every 5 min thereafter for 30 minutes, which period is illustrated in FIGS. 9-23. Using a matched dose of ^99mTc to represent the original radioactivity (Johansson, C., Studies of gastrointestinal interactions, Scand. J. Gastroenterol. 9(Suppl 28):1-60 [1974]; Zierler, K., A simplified explanation of the theory of indicator dilution for measurement of fluid flow and volume and other distributive phenomena, Bull. John Hopkins 103:199-217 [1958]), the radioactivity delivered into the animal as well as the radioactivity of the recovered fistula output were all measured using a gamma well counter. After correcting all counts to time zero, intestinal transit was calculated as the cumulative percent recovery of the delivered ^99mTc-DTPA. This method has been well validated over the years and appreciated for its advantage of minimal inadvertent marker loss. […] There was a very high level of marker recovery, with 90% of the marker recovered by 30 minutes and 98% of the marker recovered by 45 minutes.

[2] = tested on: release of 5-HT from the proximal gut; experiment: 5-HT released by the proximal gut (ELISA of mid-gut fistula output); assay type: in vivo, dog; conditions: 5-HT 0.05 mg/kg/h to distal gut; control 156 μg; n=1
Protocol: To test the hypothesis that fat in the distal gut causes the release of 5-HT in the proximal gut, the amount of 5-HT collected from the output of the mid-gut fistula (proximal gut 5-HT) over a 90-minute period of buffer perfusion through both the duodenal and mid-gut fistulas (2 mL/min); buffer (control) or oleate (60 mM) was administered to the distal gut (n=1). The amount of 5-HT was determined using an ELISA kit specific for 5-HT (Sigma; Graham-Smith, D. G., The carcinoid syndrome, In: Topics in Gastroenterology, Truclove, S. C. and Lee, E. (eds.), Blackwells, London, p. 275 [1977]; Singh, S. M. et al., Concentrations of serotonin in plasma-a test for appendicitis?, Clin. Chem. 34:2572-2574 [1988]). The amount of 5-HT released by the proximal gut increased in response to fat in the distal gut from 100 μg in the control (buffer minus oleate) to 338 μg (buffer plus oleate to distal gut), showing that 5-HT is released in the proximal gut in response to fat in the distal gut. Thus, the release of 5-HT by the proximal gut can serve as a relayed signal for fat in the distal gut. The relayed release of 5-HT in the proximal gut in response to fat in the distal gut is consistent with Example 14(2), showing that slowing of intestinal transit by fat depends on an efferent 5-HT-mediated pathway to the proximal gut.
To test the hypothesis that 5-HT in the distal gut causes the release of 5-HT in the proximal gut, the amount of 5-HT collected from the output at the mid-gut fistula (Proximal gut 5-HT) over a 90-minute period of buffer perfusion through both the duodenal and mid-gut fistulas (2 mL/min each) was compared in the presence or absence of 5-HT (0.05 mg/kg/h) administered to the distal gut (n=1). 5-HT concentration was determined using an ELISA kit specific for 5-HT (Sigma). The amount of 5-HT released by the proximal gut increased from 156 μg in the control (minus distal 5-HT) to 450 μg (plus 5-HT to distal gut), implying that 5-HT is released by the proximal gut in response to 5-HT in the distal gut. Thus, the release of 5-HT by the proximal gut can serve as a relayed signal for distal gut 5-HT. This relayed release of 5-HT in the proximal gut explains the results of Example 14(6) showing that the slowing of intestinal transit by distal gut 5-HT was abolished by ondansetron in the proximal gut (efferent limb of response) as well as in the distal gut (afferent limb of response).
To test the hypothesis that the proximal gut releases 5-HT in response to lipid in the distal gut, we compared the amount of 5-HT in the output of the midgut fistula (i.e., proximal gut 5-HT) with buffered saline (control) or oleate in the distal gut. The amount of 5-HT collected over 90 min was measured using a 5-HT-specific ELISA test kit, as described herein above. Four dogs were tested.
The amount of 5-HT released from the proximal gut in response to intravenous PYY or buffered saline (Control) during buffer perfusion (2 mL/min over 90 minutes) through both the duodenal and mid-gut fistulas was measured to test the hypothesis that intravenous PYY (0.8 mg/kg/h) causes the release of 5-HT in the proximal gut. 5-HT was measured as in Example 14(9) above. The amount of 5-HT released by the proximal gut increased from 140.1 μg (Control) to 463.1 μg in response to intravenous PYY.

[3] = tested on: SIBO; experiment: Comparison of antibiotic regimes for eradicating SIBO, follow-up lactulose breath hydrogen test (LBHT); assay type: in vivo, human; conditions: for % Patients with SIBO Eradicated: follow-up LBHT
Protocol: Subjects were tested after an overnight fast. […] Each breath sample was then analyzed for hydrogen content with a gas chromatograph (Quintron Model DP, Quintron Instrument Co., Division of E.F. Brewer Co, Menomonee Falls, Wis. 53051), standardized using a QuinGas standard as instructed by the manufacturer. Hydrogen peaks were plotted before and after an antimicrobial treatment regimen for comparison. The normal range for the second hydrogen peak was 0 to 20 ppm. Subjects referred to the Cedars-Sinai GI Motility Program for a lactulose breath hydrogen test (LBHT) to assess SIBO were entered into a database. Those that tested positive for SIBO were given antibiotic treatment by their referring physician and in some cases, returned for a follow-up LBHT to assess eradication of SIBO. During the follow-up LBHT, subjects were asked which antibiotic they were given to treat their SIBO. The eradication rate of each antibiotic was evaluated. Of the 771 subjects in the database, 561 (73%) tested positive for SIBO. […] (See Table 1 below). […] None of the commonly used antibiotics was universally successful in eradicating overgrowth.

[4] = tested on: SIBO; experiment: Antibiotic treatment of Crohn's disease subjects with SIBO; assay type: in vivo, human; conditions: Crohn's subjects; pooled over the named antibiotics
Protocol: To correct for selection bias, a pilot study was conducted to determine the incidence of SIBO in subjects who had received a suspected diagnosis of Crohn's disease at Cedars-Sinai Medical Center=s IBD Center within the preceding three months.

[5] = tested on: ileal brake; conditions: rats, Brown et al. 1993, cited from earlier work

For `NCCc1c[nH]c2ccc(O)cc12` [5-HT, 5-hydroxytryptamine], the “Effect of 5-HT delivered to distal gut on intestinal transit time” value (“Effect of 5-HT delivered to distal gut” below) ([1]; 0.033 mg/kg/h × 90 min, 0 dose 68.5 ± 1.0) was 69.6 ± 4.2 min, the “Effect of 5-HT delivered to distal gut” value ([1]; 0.05 mg/kg/h × 90 min) was 33.5 ± 1.5 min and the “Effect of 5-HT delivered to distal gut” value ([1]; 0.066 mg/kg/h × 90 min) was 15.2 ± 0.5 min. For the same molecule, the marker recovery ([1]; 0.1 mg/kg/h 5-HT into distal gut, Saline-Dist 76.1±1.3%) was 35.2±2.3%, the marker recovery ([1]; 0.1 mg/kg/h 5-HT into proximal gut, Saline-Prox 85.0±7.3%, four dogs) was 20.1±4.5% and the “Effect of 5-HT delivered to distal gut” value ([1]; 0.1 mg/kg/h × 90 min) was 16.1 ± 4.9 min. For the same molecule, the “Effect of 5-HT delivered to distal gut” value ([1]; 0.3 mg/kg/h × 90 min) was 73.8 ± 0.6 min, the marker recovery ([1]; 5-HT 0.05 mg/kg/h in distal gut, Buffer Control 79.4±4.1%) was 37.0±1.8% and the marker recovery ([1]; 5-HT 0.05 mg/kg/h to distal gut, Buffer Control 83.3±3.3%, n=2) was 36.1±2.3%. For the same molecule, the “proximal intestinal transit, cumulative % marker recovered” value ([1]; 5-HT 0.1 mg/kg/h distal gut, Saline (i.v.)) was 28.27 ± 5.03%, the marker recovery ([1]; 5-HT 0.1 mg/kg/h to distal gut, buffer control 76.1±4.7%, four dogs) was 35.2±2.2% and the marker recovery ([1]; 5-HT in distal gut, 2 mg (0.033 mg/kg/h) over 90 min, buffer 81.2%, n=1) was 73.8%. For the same molecule, the marker recovery ([1]; 5-HT in distal gut, 3 mg (0.05 mg/kg/h), n=1) was 53.1%, the marker recovery ([1]; 5-HT in distal gut, 4 mg (0.066 mg/kg/h), n=1) was 11.6% and the marker recovery ([1]; 5-HT in proximal gut, 0.033 mg/kg/h) was “not significantly different from the buffer control”. For the same molecule, the marker recovery ([1]; 5-HT in proximal gut, 0.05 mg/kg/h) was 33.2±14.0%, the marker recovery ([1]; 5-HT in proximal gut, 0.066 mg/kg/h, buffer 75.0±4.4%, four dogs) was 16.9±+3.7% and the “amount of 5-HT released by the proximal gut” value [2] was 450 µg.

With `O=C(O)c1cn(C2CC2)c2cc(N3CCNCC3)c(F)cc2c1=O` [Ciprofloxacin, ciprofloxacin] the “% Patients with SIBO Eradicated” value [3] was 50% and the “improvement in symptoms, breath test negative after antibiotic” value [4] was 69±27%.

For `Cc1ncc([N+](=O)[O-])n1CCO` [Flagyl, metronidazole], the “success in eradicating SIBO, comparison of antibiotics” value ([3]; 105 subjects with follow-up LBHT) was “relatively poor choice by itself”, the “% Patients with SIBO Eradicated” value [3] was 25% and the “improvement in symptoms, breath test negative after antibiotic” value [4] was 69±27%. The “improvement in symptoms, subjects remaining positive on breath test after antibiotic” value [4] was 20±0%.

In the case of `CN1C2CCCC1CC(NC(=O)c1nn(C)c3ccccc13)C2` (centres unmarked) [granisetron], the “ileal brake induced by ileal infusion of lipid” value ([5]; subcutaneous administration) is given as “abolished the ileal brake” and the “intestinal transit of a baked bean meal” value ([5]; subcutaneous administration) is given as “delayed”.

Work on `C=CCN1CC[C@]23c4c5ccc(O)c4O[C@H]2C(=O)CC[C@@]3(O)[C@H]1C5` [naloxone] yielded a marker recovery ([1]; 60 mM oleate in proximal gut with 3 mg naloxone) of 41.0±5.2%, a marker recovery ([1]; 60 mM oleate in proximal gut with 6 mg naloxone) of 62.8±8.2% and a marker recovery ([1]; 60 mM oleate in proximal gut with 12 mg naloxone) of 60.6±6.1%. For the same molecule, the marker recovery ([1]; buffer in proximal gut with 6 mg naloxone, no fat, without naloxone 81.3±6.1%, n=3) was 88.0±1.3%, the marker recovery ([1]; distal gut 5-HT + naloxone 6 mg in proximal gut) was 90.1±4.6% and the marker recovery ([1]; ileal brake + 6 mg naloxone to distal gut) was 29.4±5.4%. The marker recovery ([1]; ileal brake + 6 mg naloxone to proximal gut) was 76.2±5.2% and the ileal brake [5] was “abolish the ileal brake”.

With `NC[C@H](O)c1ccc(O)c(O)c1` [norepinephrine] the “Transit Across Proximal Gut (Cumulative % Marker Recovered)” value ([1]; Buffer + NE i.v. 50 mg/30 ml/1.5 h, Buffer Control 68.5 ± 5.0, five dogs) was 16.3 ± 3.4^ab % and the marker recovery ([1]; intravenous norepinephrine 0.12 μg/kg/h + normal saline, Buffer Control 76.9%, n=2) was 13.3%.

In the case of `CC(C)NCC(O)COc1cccc2ccccc12` (centres unmarked) [propranolol], the “proximal intestinal transit, cumulative % marker recovered” value ([1]; 60 mM oleate distal gut + Propranolol (i.v.) 50 μg/kg/h) is reported as 66.42 ± 8.26%, the “proximal intestinal transit, cumulative % marker recovered” value ([1]; 5-HT distal gut + Propranolol (i.v.) 50 μg/kg/h) is reported as 63.85 ± 8.76% and the marker recovery ([1]; distal gut 5-HT + intravenous propranolol 50 μg/kg/h) is reported as 77.7±7.6%. For the same molecule, the marker recovery ([1]; distal gut oleate + intravenous propranolol 50 μg/kg/h) was 72.1±4.7% and the marker recovery ([1]; intravenous PYY + intravenous propranolol 50 μg/kg/h) was 66.3±3.1%.
